According to patent publication US20240247207A1, “MALTOSIDE-, LACTOBIONAMIDE-, MONOGLUCOSIDE-, BRANCHED DIGLUCOSIDE-, SULFOBETAINE-, SULFATE- OR AMINOOXIDE-BASED PERFLUORINATED DETERGENTS AND THEIR USE IN MEMBRANE-PROTEINS APPLICATIONS” (AVIGNON UNIVERSITE, priority 2021, published 2024):
Entries after “also recorded” stand apart in the source; their conditions may differ.

What was measured:
[1] = SFT for CMC determination (surface tension, Wilhelmy plate technique); assay type: physicochemical; details: air/water interface, (20.0±0.5)° C.
Description: SFT for CMC determination. The surface activity of the compounds of the invention in solution at the air/water interface was determined using a K100 tensiometer (Kruss, Hamburg, Germany). Surface tensions were determined by dilution of stock solutions (13 g/L for compound 5a (cyF6H3Malt), 4.6 g/L for compound 5b (cyF6H4Malt), 2 g/L for compound 5c (cyF6H5Malt), 10 g/L for compound 8a (isoF5H3Malt), 1.7 g/L for compound 8c (isoF5H5Malt) and 0.4 g/L for compound 8b (isoF7H3Malt), ˜4×CMC) using the Wilhelmy plate technique. In a typical experiment, 13 concentration steps were prepared from solutions equilibrated overnight before measurement. All measurements were performed at (20.0±0.5)° C. until standard deviation reach ±0.05 or during at least 30 min.

[2] = tested on: membrane-proteins from native E. coli membranes; test: Extraction of membrane-proteins from native E. coli membranes, SDS-PAGE quantification; details: for membrane-protein extraction / solubilization efficiency (in words): CMC+1, 2, 5, 10 mM, at least 16 h at 20° C., yields relative to buffer without detergent
Description: Solubilization of Membrane-Proteins from native E. coli membranes. E. coli BL21(DE3) cells were transformed with an empty pET-24 vector and selected by kanamycin resistance. After incubation in 400 mL lysogeny broth overnight at 37° C. under constant agitation (150 rpm), cells were harvested by centrifugation and washed twice with saline (154 mM NaCl). Cell pellets were resuspended in ice-cold buffer (100 mM Na2CO3, pH 11.5) and subjected to ultrasonication in an S-250A sonifier (Branson Ultrasonics, Danbury, USA) twice for 10 min each. To remove cell debris, the lysate was centrifuged at 4° C. for 20 min at 7149 rpm (3000 g). The supernatant was ultracentrifuged at 4° C. for 1 h at 31 400 rpm (100,000 g) to separate membrane fragments from soluble and peripheral proteins. Membrane pellets were washed and suspended in working buffer, ultracentrifuged again at 4° C. for 1 h at 31 400 rpm (100,000 g) to remove any residual soluble or peripheral proteins. The resulting pellets were resuspended in buffer (50 mM Tris, 200 mM NaCl, pH 7.4) to a final concentration of 100 mg wet-weight pellet per 1 mL of buffer and mixed in a 1:1 volume ratio with stock solutions of the compounds of the invention in buffer. All samples were incubated for at least 16 h at 20° C. under constant, gentle agitation (500 rpm) and subsequently ultracentrifuged at 4° C. for 1 h at 51 000 rpm (100,000 g). The solubilized supernatant containing micelles was analyzed using SDS-PAGE.
Sodium dodecyl sulphate polyacrylamide gel electrophoresis (SDS-PAGE). The solubilization efficiency of compound 5a, F6OM, F6OPC and DDM on biological membranes was assessed by SDS-PAGE using a NuPAGE Bis-Tris system (Life Technologies, Carlsbad, USA) with a polyacrylamide gradient of 4-12%. 14-μL samples were mixed with 5 μL 4×SDS sample buffer (106 mM Tris HCl, 141 mM Tris base, 2% (w v) SDS, 10% (w v) glycerol, 0.51 mM EDTA, 0.22 mM SERVA Blue G250, and 0.175 mM Phenol Red, pH 8.5) and 1 μL 1 M dithiothreitol (DTT) and boiled at 95° C. for 10 min. 12 μL of each sample was loaded on a ready-to-use NuPAGE. As reference, a standard-weight marker (Roti-Mark 10-150, Carl Roth, Karlsruhe, Germany) was used, and the working buffer was used as negative control. […] For quantification of solubilization efficiencies, gels were photographed with a C4000Z camera (Olympus, Tokyo, Japan), and protein bands were analyzed with ImageJ software.
Results. The intensities (i.e., pixel counts) of SDS-PAGE band patterns (FIG. 2) were analyzed to provide the overall protein-extraction yields which were expressed relative to the buffer without any detergent.

[3] = 100 μM POPC LUVs, detergent at CMC+ca. 5 mM, 25° C., light scattering at 90°
Description: Preparation of lipid vesicles. To prepare LUVs, POPC in powder form was weighed on a high-precision XP Delta Range microbalance (Mettler Toledo, Greifensee, Switzerland) and suspended in phosphate buffer (10 mM Na2HIPO4/NaH2PO4, 150 mM NaCl, pH 7.4). The solution was vortexed for 15 min at room temperature and extruded in a LiposoFast extruder (Avestin, Mannheim, Germany) with at least 35 extrusion steps through two stacked polycarbonate membranes with a pore diameter of 100 nm (Avestin). The hydrodynamic diameter of the LUVs was distributed around 120-130 nm, as shown by DLS.
Kinetics of vesicle solubilization. For vesicle solubilization kinetics, measurements were conducted by adding a high concentration (ca. 5 mM) of the compound of the invention above its CMC to 100 μM POPC LUVs in a 3 mm×3 mm quartz glass cuvette. […] Measurements were started immediately after mixing the vesicle suspension to monitor changes in light scattering intensity, Iscatter at an angle of 90° and at 25° C.
The solubilization of preformed large unilamellar vesicles (LUVs) composed of the singly unsaturated phospholipid 1-palmitoyl-2-oleyl-sn-glycero-3-phosphocholine (POPC) was investigated.

[4] = literature value; cited from earlier work

| SMILES | CMC (critical micellar concentration) [1] [mM] | γCMC (surface tension at the CMC) [1] [mN/m] | membrane-protein extraction / solubilization efficiency (in words) [2] | solubilization efficiency at low concentrations, compared with DDM (in words) ([2]; low concentrations, CMC+1-5 mM) | time to complete solubilization of LUVs [3] [h] | CMC [4] [mM] |
| --- | --- | --- | --- | --- | --- | --- |
| OC[C@H]1O[C@H](O[C@H]2[C@H](O)[C@@H](O)[C@H](OCCCC(F)(F)C(F)(F)C(F)(F)C(F)(F)C(F)(C(F)(F)F)C(F)(F)F)O[C@@H]2CO)[C@H](O)[C@@H](O)[C@@H]1O [Compound 8b, 3-(perfluoroisoheptyl)-propoxy-4-O—(α-D-glucopyranosyl)-β-D-glucopyranoside] | 0.11 | 17.4 | – | – | – | – |
| OC[C@H]1O[C@H](O[C@H]2[C@H](O)[C@@H](O)[C@H](OCCCC3(F)C(F)(F)C(F)(F)C(F)(F)C(F)(F)C3(F)F)O[C@@H]2CO)[C@H](O)[C@@H](O)[C@@H]1O [Compound 5a, 3-(perfluorocyclohexyl)-propoxy-4-O—(α-D-glucopyranosyl)-β-D-glucopyranoside] | 3.47 | 23.9 | efficiently extracted membrane-proteins; also recorded: higher membrane-protein extraction yield than F6OM and F6OPC | better solubilization efficiencies than DDM | ~2 | – |
| C[N+](C)(CCCCCC1(F)C(F)(F)C(F)(F)C(F)(F)C(F)(F)C1(F)F)CCCS(=O)(=O)[O-] [Compound 17, 3-(dimethyl(5-(perfluorocyclohexyl)pentyl)ammonio)propane-1-sulfonate] | 3.20 | 23.7 | – | – | – | – |
| OC[C@H]1O[C@H](O[C@H]2[C@H](O)[C@@H](O)[C@H](OCCCC(F)(F)C(F)(F)C(F)(C(F)(F)F)C(F)(F)F)O[C@@H]2CO)[C@H](O)[C@@H](O)[C@@H]1O [Compound 8a, 3-(perfluoroisopentyl)-propoxy-4-O—(α-D-glucopyranosyl)-β-D-glucopyranoside] | 2.66 | 22.5 | – | – | – | – |
| OC[C@H]1O[C@H](O[C@H]2[C@H](O)[C@@H](O)[C@H](OCCCCCC3(F)C(F)(F)C(F)(F)C(F)(F)C(F)(F)C3(F)F)O[C@@H]2CO)[C@H](O)[C@@H](O)[C@@H]1O [Compound 5c, 5-(perfluorocyclohexyl)-pentoxy-4-O—(α-D-glucopyranosyl)-β-D-glucopyranoside] | 0.70 | 23.16 | – | – | – | – |
| OC[C@H]1O[C@H](O[C@H]2[C@H](O)[C@@H](O)[C@H](OCCCCC3(F)C(F)(F)C(F)(F)C(F)(F)C(F)(F)C3(F)F)O[C@@H]2CO)[C@H](O)[C@@H](O)[C@@H]1O [Compound 5b, 4-(perfluorocyclohexyl)-butoxy-4-O—(α-D-glucopyranosyl)-β-D-glucopyranoside] | 2.29 | 22.7 | – | – | – | – |
| O=C(NCCCC1(F)C(F)(F)C(F)(F)C(F)(F)C(F)(F)C1(F)F)C(O)[C@H](O)[C@H](O[C@@H]1OC(CO)[C@H](O)[C@H](O)C1O)C(O)CO (stereo partly drawn) [Compound 12, 3-(perfluorocyclohexyl)-N-propane Octahydroxy lactobionamide] | 6.32 | 24.4 | – | – | – | – |
| CCCCCCCCCCCCO[C@@H]1O[C@H](CO)[C@@H](O[C@H]2O[C@H](CO)[C@@H](O)[C@H](O)[C@H]2O)[C@H](O)[C@H]1O [DDM, n-dodecyl-β-D-maltoside] | – | – | – | – | – | 0.17 |
| OC[C@H]1O[C@H](O[C@H]2[C@H](O)[C@@H](O)[C@H](OCCCCCC(F)(F)C(F)(F)C(F)(C(F)(F)F)C(F)(F)F)O[C@@H]2CO)[C@H](O)[C@@H](O)[C@@H]1O [Compound 8c, 5-(perfluoroisopentyl)-pentoxy-4-O—(α-D-glucopyranosyl)-β-D-glucopyranoside] | 0.53 | 22.1 | – | – | – | – |
| OC[C@H]1O[C@H](O[C@H]2[C@H](O)[C@@H](O)[C@H](OCCC(F)(F)C(F)(F)C(F)(F)C(F)(F)C(F)(F)C(F)(F)F)O[C@@H]2CO)[C@H](O)[C@@H](O)[C@@H]1O [Compound F6OM, (1H, 1H, 2H, 2H-Perfluorooctyl)-β-D-Maltopyranoside, reference compound] | – | – | very limited solubilization | – | – | 0.7 |
| C[N+](C)(C)CCOP(=O)([O-])OCCC(F)(F)C(F)(F)C(F)(F)C(F)(F)C(F)(F)C(F)(F)F [Compound F6OPC, (1H, 1H, 2H, 2H-Perfluorooctyl)phosphocholine, reference compound] | – | – | very limited solubilization | – | – | 2.9 |
